# Earlier results, collected in US7777053B2, “Efficient process for production of carvedilol phosphate” (Wanbury Limited, priority 2007, dated 2010).
# Structures can show the parent of a compound that is named as a salt. Where two headings read alike, the source gives them in different places.
"solubility (neutral or alkaline media, above pH of 9.0) [µg/mL]","saturation solubility (pH=5, room temperature)","saturation solubility (pH=7, room temperature)","aqueous solubility (as described in US 2005/0277689 A1, compared with carvedilol)",Structure (SMILES)
< 1,about 100 μg/ml,about 23 μg/ml,–,"COc1ccccc1OCCNCC(O)COc1cccc2[nH]c3ccccc3c12 (stereo not shown) [Carvedilol, 1-(9H-carbazol-4yloxy)-3-[[2-(2-methoxyphenoxy)-ethyl]amino]-propan-2-ol]"
–,–,–,much higher aqueous solubility,"COc1ccccc1OCCNCC(O)COc1cccc2[nH]c3ccccc3c12 (stereo not shown) [carvedilol phosphate, phosphate salts of 1-(9H-carbazol-4yloxy)-3-[[2-(2-methoxyphenoxy)ethyl]amino]-propan-2-ol]"
